Earlier results on one compound are cited in patent US12533325B2, “Composition and method for preventing or treating opioid withdrawal symptoms” (priority 2023, dated 2026).

This data set relates to heroin-seeking behavior.

Regarding `C=C(C)[C@@H]1CCC(C)=C[C@H]1c1c(O)cc(CCCCC)cc1O` [CBD, Cannabidiol], under “cue-induced reinstatement”, the “heroin-seeking behavior reinstated by a conditional stimulus” value was “attenuated heroin-seeking behavior reinstated by a conditional stimulus”. The “persistence of effect on heroin-seeking behavior after administration” value (twenty-four hours and two weeks after administration) was “protracted effect with significance after twenty-four hours and even two weeks after administration”.
